Patent US20240391936A1, “TETRAHYDROTHIENO PYRIDINE DERIVATIVES AS DDRS INHIBITORS” (CHIESI FARMACEUTICI S.P.A., priority 2021, published 2024)

What was measured:
DDR1 [1] = molecular target: T1, DDR1 (Homo sapiens, UniProt Q08345); test: DDR1 binding assay (LanthaScreen Europium Kinase Binding assay); design: purchased Carna Biosciences; settings: binding assay, 5 nM DDR1, 20 nM Kinase Tracer 178; Ki from IC50 by Cheng-Prusoff; read-out: Ki DDR1
Procedure, shortened: (§1)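 TR-FRET tracer-displacement format: 665/615 nm emission ratio (340 nm excitation) gave IC50 by 4-parameter fit, then Ki via Cheng-Prusoff. Each kinase at 5 nM with 2 nM Eu-anti-GST antibody and Tracer 178 (DDR1 20 nM, DDR2 10 nM), 1 h, room temperature, HEPES pH 7.5 buffer.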

DDR1 [2] = molecular target: T1, DDR1; test: DDR1 cell based assay (PathHunter U2OS DDR1 assay); design: host or cells: U2OS-DDR1 (PathHunter); settings: U2OS-DDR1 cells, bovine Type II Collagen 20 μg/ml
Procedure, shortened: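 Receptor activation measured by enzyme-fragment complementation luminescence in engineered U2OS cells. Compound added 30 min before overnight challenge with 20 μg/ml bovine collagen II; data scaled between vehicle and collagen-stimulated controls, IC50 derived by four-parameter variable-slope fitting.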

DDR2 [3] = molecular target: T2, DDR2 (Homo sapiens, UniProt Q16832); test: DDR2 cell based assay (phospho-ELISA in HEK293T-DDR2 recombinant cells); design: expressed in transfected cells; host or cells: HEK293T-DDR2 recombinant cells; settings: bovine Type II Collagen 50 μg/ml
T2 sequence (Q16832 22-855): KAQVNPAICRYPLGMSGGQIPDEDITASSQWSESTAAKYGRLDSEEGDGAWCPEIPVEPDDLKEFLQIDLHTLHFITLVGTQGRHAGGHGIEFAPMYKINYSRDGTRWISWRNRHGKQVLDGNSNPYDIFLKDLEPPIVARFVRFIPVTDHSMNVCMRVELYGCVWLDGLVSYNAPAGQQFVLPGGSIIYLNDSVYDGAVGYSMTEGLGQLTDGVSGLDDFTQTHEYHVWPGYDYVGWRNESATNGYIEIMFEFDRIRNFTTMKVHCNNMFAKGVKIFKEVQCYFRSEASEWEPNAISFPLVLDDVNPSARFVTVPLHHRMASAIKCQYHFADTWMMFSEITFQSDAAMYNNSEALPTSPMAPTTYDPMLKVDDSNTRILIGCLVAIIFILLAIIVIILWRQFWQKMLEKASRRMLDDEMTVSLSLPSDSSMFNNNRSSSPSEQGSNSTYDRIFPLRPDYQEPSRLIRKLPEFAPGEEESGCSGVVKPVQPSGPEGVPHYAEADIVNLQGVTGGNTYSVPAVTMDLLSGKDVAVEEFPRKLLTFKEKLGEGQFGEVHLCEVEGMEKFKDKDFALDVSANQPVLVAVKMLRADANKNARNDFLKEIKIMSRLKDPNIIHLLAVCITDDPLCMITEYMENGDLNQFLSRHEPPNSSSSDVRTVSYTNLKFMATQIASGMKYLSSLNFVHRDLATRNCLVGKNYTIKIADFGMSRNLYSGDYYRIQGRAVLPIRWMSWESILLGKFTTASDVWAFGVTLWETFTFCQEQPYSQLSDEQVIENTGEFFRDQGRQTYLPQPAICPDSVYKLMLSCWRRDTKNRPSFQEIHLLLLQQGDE
Method: The inhibition of DDR2 phosphorylation by compounds was evaluated in HEK293T-DDR2 recombinant cells by phospho-ELISA assay. Briefly, HEK293T-DDR2 cells were seeded in poly-D-lysine-coated 24-well plates at a density of 250.000 cells/well and incubated for 1.5 hours at 37° C. and 5% CO2 in DMEM+10% FBS. After that, the medium was changed to serum-free DMEM and cells were incubated for 3 hours. Then. test compounds were added at different concentrations 30 minutes before stimulation with bovine Type II Collagen at 50 μg/ml for further 3 hours. For DDR2 phospho-ELISA assay (DuoSet IC Human Phospho-DDR2; R&D Systems), protein extracts were obtained by adding 60 μl/well of lysis buffer prepared according to the manufacturer's instructions. Protein concentration in the samples was determined by BCA assay and the levels of phospho-DDR2 were determined following R&D Systems indications. Raw data were normalized to maximal inhibition control (0% for normalization) and positive control (100% for normalization; cells treated with […] collagen II) and IC50 parameters were calculated in GraphPad Prism 8.0 software, using sigmoidal dose-response curve fitting with variable slope.

DDR2 [4] = molecular target: T2, DDR2; test: DDR2 binding assay (LanthaScreen Europium Kinase Binding assay); design: purchased Life Technologies; settings: binding assay, 5 nM DDR2, 10 nM Kinase Tracer 178; Ki from IC50 by Cheng-Prusoff; read-out: Ki DDR2
Procedure, shortened: as §1

T1 sequence (Q08345 19-913): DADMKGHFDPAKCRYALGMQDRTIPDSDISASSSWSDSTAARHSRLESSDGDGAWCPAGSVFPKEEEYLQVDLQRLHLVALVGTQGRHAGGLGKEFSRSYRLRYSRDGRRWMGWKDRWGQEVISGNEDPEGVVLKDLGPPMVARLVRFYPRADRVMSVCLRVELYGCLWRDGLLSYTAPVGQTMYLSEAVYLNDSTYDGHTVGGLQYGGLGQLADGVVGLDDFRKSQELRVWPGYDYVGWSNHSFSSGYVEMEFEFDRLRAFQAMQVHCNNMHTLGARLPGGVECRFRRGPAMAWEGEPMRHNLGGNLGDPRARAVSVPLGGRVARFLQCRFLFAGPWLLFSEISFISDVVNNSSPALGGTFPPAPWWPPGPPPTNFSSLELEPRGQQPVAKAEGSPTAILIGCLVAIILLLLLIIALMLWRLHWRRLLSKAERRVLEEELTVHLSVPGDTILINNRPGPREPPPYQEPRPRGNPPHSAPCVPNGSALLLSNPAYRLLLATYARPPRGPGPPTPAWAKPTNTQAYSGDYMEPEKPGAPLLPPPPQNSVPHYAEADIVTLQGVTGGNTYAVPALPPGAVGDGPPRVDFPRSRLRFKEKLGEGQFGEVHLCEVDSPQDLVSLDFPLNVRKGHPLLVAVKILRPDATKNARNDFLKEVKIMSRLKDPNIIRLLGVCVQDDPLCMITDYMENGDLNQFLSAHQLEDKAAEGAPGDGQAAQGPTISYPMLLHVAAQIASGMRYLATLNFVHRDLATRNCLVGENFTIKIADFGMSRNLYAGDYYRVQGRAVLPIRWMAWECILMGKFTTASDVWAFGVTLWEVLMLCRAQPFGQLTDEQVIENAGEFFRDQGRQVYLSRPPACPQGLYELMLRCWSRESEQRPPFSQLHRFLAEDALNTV

O=C(Nc1cc(F)cc(C(F)(F)F)c1)c1csc2c1CCN(C(=O)c1cnc3ccccn13)C2 [Example 46, N-(3-fluoro-5-(trifluoromethyl)phenyl)-6-(imidazo[1,2-a]pyridine-3-carbonyl)-4,5,6,7-tetrahydrothieno[2,3-c]pyridine-3-carboxamide]
< 25 nM: Ki (DDR1 [1]) | IC50 (DDR1 [2]) | IC50 (DDR2 [3]) | Ki (DDR2 [4])

O=C(Nc1cccc(OC(F)(F)F)c1)c1csc2c1CCN(Cc1cnc3[nH]ncc3c1)C2 [Example 66, 6-((1H-pyrazolo[3,4-b]pyridin-5-yl)methyl)-N-(3-(trifluoromethoxy)phenyl)-4,5,6,7-tetrahydrothieno[2,3-c]pyridine-3-carboxamide]
< 25 nM: Ki (DDR1 [1]) | IC50 (DDR1 [2]) | IC50 (DDR2 [3]) | Ki (DDR2 [4])

O=C(Nc1cc(F)cc(C(F)(F)F)c1)c1csc2c1CCN(Cc1cnc3[nH]ncc3c1)C2 [Example 67, 6-((1H-pyrazolo[3,4-b]pyridin-5-yl)methyl)-N-(3-fluoro-5-(trifluoromethyl)phenyl)-4,5,6,7-tetrahydrothieno[2,3-c]pyridine-3-carboxamide]
25 to 50 nM: IC50 (DDR2 [3])
< 25 nM: Ki (DDR1 [1]) | IC50 (DDR1 [2]) | Ki (DDR2 [4])

O=C(Nc1cccc(C(F)(F)F)c1)c1csc2c1CCN(Cc1cnc3[nH]ccc3c1)C2 [Example 69, 6-((1H-pyrrolo[2,3-b]pyridin-5-yl)methyl)-N-(3-(trifluoromethyl)phenyl)-4,5,6,7-tetrahydrothieno[2,3-c]pyridine-3-carboxamide]
< 25 nM: Ki (DDR1 [1]) | IC50 (DDR1 [2]) | Ki (DDR2 [4])
25 to 50 nM: IC50 (DDR2 [3])

Cn1nc(C(C)(C)C)cc1NC(=O)c1csc2c1CCN(Cc1cnc3[nH]ccc3c1)C2 [Example 70, 6-((1H-pyrrolo[2,3-b]pyridin-5-yl)methyl)-N-(3-(tert-butyl)-1-methyl-1H-pyrazol-5-yl)-4,5,6,7-tetrahydrothieno[2,3-c]pyridine-3-carboxamide]
25 to 50 nM: IC50 (DDR2 [3])
< 25 nM: Ki (DDR1 [1]) | IC50 (DDR1 [2]) | Ki (DDR2 [4])

COc1ccc(NC(=O)c2csc3c2CCN(Cc2cnc4[nH]ccc4c2)C3)cc1C(F)(F)F [Example 71, 6-((1H-pyrrolo[2,3-b]pyridin-5-yl)methyl)-N-(4-methoxy-3-(trifluoromethyl)phenyl)-4,5,6,7-tetrahydrothieno[2,3-c]pyridine-3-carboxamide]
< 25 nM: Ki (DDR1 [1]) | IC50 (DDR1 [2]) | IC50 (DDR2 [3]) | Ki (DDR2 [4])

O=C(Nc1cccc(OC(F)(F)F)c1)c1csc2c1CCN(Cc1cnc3[nH]ccc3c1)C2 [Example 72, 6-((1H-pyrrolo[2,3-b]pyridin-5-yl)methyl)-N-(3-(trifluoromethoxy)phenyl)-4,5,6,7-tetrahydrothieno[2,3-c]pyridine-3-carboxamide]
< 25 nM: Ki (DDR1 [1]) | IC50 (DDR1 [2]) | IC50 (DDR2 [3]) | Ki (DDR2 [4])

O=C(Nc1cc(F)cc(C(F)(F)F)c1)c1csc2c1CCN(Cc1cnc3[nH]ccc3c1)C2 [Example 73, 6-((1H-pyrrolo[2,3-b]pyridin-5-yl)methyl)-N-(3-fluoro-5-(trifluoromethyl)phenyl)-4,5,6,7-tetrahydrothieno[2,3-c]pyridine-3-carboxamide]
< 25 nM: Ki (DDR1 [1]) | IC50 (DDR1 [2]) | IC50 (DDR2 [3])
25 to 50 nM: Ki (DDR2 [4])

Cc1cn(-c2cc(NC(=O)c3csc4c3CCN(C(=O)c3cnc5ccccn35)C4)cc(C(F)(F)F)c2)cn1 [Example 74, 6-(imidazo[1,2-a]pyridine-3-carbonyl)-N-(3-(4-methyl-1H-imidazol-1-yl)-5-(trifluoromethyl)phenyl)-4,5,6,7-tetrahydrothieno[2,3-c]pyridine-3-carboxamide]
< 25 nM: Ki (DDR1 [1]) | IC50 (DDR1 [2]) | IC50 (DDR2 [3]) | Ki (DDR2 [4])

Cc1ccc(-n2nc(C(C)(C)C)cc2NC(=O)c2csc3c2CCN(Cc2cnc4[nH]ncc4c2)C3)cc1 [Example 75, 6-((1H-pyrazolo[3,4-b]pyridin-5-yl)methyl)-N-(3-(tert-butyl)-1-(p-tolyl)-1H-pyrazol-5-yl)-4,5,6,7-tetrahydrothieno[2,3-c]pyridine-3-carboxamide]
< 25 nM: Ki (DDR1 [1]) | IC50 (DDR1 [2]) | IC50 (DDR2 [3]) | Ki (DDR2 [4])

Cc1n[nH]c2ncc(CN3CCc4c(C(=O)Nc5cc(C(C)(C)C)nn5C)csc4C3)cc12 [Example 78, N-(3-(tert-butyl)-1-methyl-1H-pyrazol-5-yl)-6-((3-methyl-1H-pyrazolo[3,4-b]pyridin-5-yl)methyl)-4,5,6,7-tetrahydrothieno[2,3-c]pyridine-3-carboxamide]
< 25 nM: Ki (DDR1 [1]) | IC50 (DDR1 [2]) | IC50 (DDR2 [3]) | Ki (DDR2 [4])

O=C(Nc1cccc(C(F)(F)F)c1)c1csc2c1CCN(Cc1cnc3cnccn13)C2 [Example 84, 6-(imidazo[1,2-a]pyrazin-3-ylmethyl)-N-(3-(trifluoromethyl)phenyl)-4,5,6,7-tetrahydrothieno[2,3-c]pyridine-3-carboxamide]
< 25 nM: Ki (DDR1 [1]) | IC50 (DDR1 [2]) | IC50 (DDR2 [3]) | Ki (DDR2 [4])

O=C(Nc1cccc(C(F)(F)F)c1)c1csc2c1CCN(Cc1cnc3[nH]ncc3c1)C2 [Example 85, 6-((1H-pyrazolo[3,4-b]pyridin-5-yl)methyl)-N-(3-(trifluoromethyl)phenyl)-4,5,6,7-tetrahydrothieno[2,3-c]pyridine-3-carboxamide]
< 25 nM: Ki (DDR1 [1]) | IC50 (DDR1 [2]) | IC50 (DDR2 [3]) | Ki (DDR2 [4])

O=C(Nc1cccc(C(F)(F)F)c1)c1csc2c1CCN(Cc1ccnc3[nH]ccc13)C2 [Example 86, 6-((1H-pyrrolo[2,3-b]pyridin-4-yl)methyl)-N-(3-(trifluoromethyl)phenyl)-4,5,6,7-tetrahydrothieno[2,3-c]pyridine-3-carboxamide]
< 25 nM: Ki (DDR1 [1]) | IC50 (DDR1 [2]) | IC50 (DDR2 [3]) | Ki (DDR2 [4])

O=C(Nc1cccc(C(F)(F)F)c1)c1csc2c1CCN(C(=O)c1cnc3cnccn13)C2 [Example 90, 6-(imidazo[1,2-a]pyrazine-3-carbonyl)-N-(3-(trifluoromethyl)phenyl)-4,5,6,7-tetrahydrothieno[2,3-c]pyridine-3-carboxamide]
< 25 nM: Ki (DDR1 [1]) | IC50 (DDR1 [2]) | IC50 (DDR2 [3]) | Ki (DDR2 [4])

O=C(Nc1cccc(C(F)(F)F)c1)c1csc2c1CCN(C(=O)c1cnn3ccncc13)C2 [Example 93, 6-(pyrazolo[1,5-a]pyrazine-3-carbonyl)-N-(3-(trifluoromethyl)phenyl)-4,5,6,7-tetrahydrothieno[2,3-c]pyridine-3-carboxamide]
< 25 nM: Ki (DDR1 [1]) | IC50 (DDR1 [2]) | IC50 (DDR2 [3]) | Ki (DDR2 [4])

Cc1cn(-c2cc(NC(=O)c3csc4c3CCN(C(=O)c3cnc5ccccn35)C4C)cc(C(F)(F)F)c2)cn1 (centres unmarked) [Example 98, 6-(imidazo[1,2-a]pyridine-3-carbonyl)-7-methyl-N-(3-(4-methyl-1H-imidazol-1-yl)-5-(trifluoromethyl)phenyl)-4,5,6,7-tetrahydrothieno[2,3-c]pyridine-3-carboxamide]
< 25 nM: Ki (DDR1 [1]) | IC50 (DDR1 [2]) | IC50 (DDR2 [3]) | Ki (DDR2 [4])
